This note sets out measurements from patent US20030068615A1, “Polypeptides that bind HIV gp120 and related nucleic acids, antibodies, compositions, and methods of use” (priority 1999, published 2003).

Values joined by “and” are separate entries in the source; they are usually repeats but may differ in a detail not shown here. Equal entries are not always repeated. Where two headings read alike, the source gives them in different places.

The target of the assay is HIV-1LAI envelope gp120 (Human immunodeficiency virus type 1 group M subtype B, UniProt P03377). It counts as binding. To be noted: for Binding Results For Window Length (counts bound-background), 9: 9-mer starting at the first residue of the printed sequence; for Binding Results For Window Length (counts bound-background), 12: 12-mer starting at the first residue of the printed sequence; for Binding Results For Window Length (counts bound-background), 15: 15-mer starting at the first residue of the printed sequence; for number of radioactive decays (counts) counted: human CD4 21-mer scan, empty control 2075; for Counts per 20′ Average-background: CCR5 18-mer scan, radiolabeled HIV-1LAI gp120; for Relative % of Control: mean of two syntheses and binding experiments ± average deviation, wild-type = 100%.

Setting [1] is: STRL33 amino terminus, background subtracted.
[2] abbreviates: Panel D, 9-mers and 12-mers of CD4, empty control […].
[3] abbreviates: CXCR4 18-mer scan, background subtracted, empty control 0.
Setting [4] is: CXCR4 18-mer scan, empty control 412.
[5] abbreviates: Panel E, 9-mers and 12-mers of CD4, empty control 571.
[6] abbreviates: Panel B, 15-mers and 18-mers of CD4, empty control 575.
Where [7] appears, read: Panel C, 15-mers and 18-mers of CD4, empty control 556.
The mark [8] stands for this setting: STRL33 18-mer scan, background subtracted, first of two count columns.
Where [9] appears, read: STRL33 18-mer scan, background subtracted, second of two count columns.
The mark [10] stands for this setting: Panel F, sequential alanine replacements of CD4 polypeptides, duplicate series, empty control 569.
Setting [11] is: Panel A, 21-mers of CD4, empty control 515 and 617.

Take DSSQEEHQAFLQFSK: under setting [1], the “Binding Results For Window Length (counts bound-background), 9” value turned out to be 147 counts; the “Binding Results For Window Length (counts bound-background), 12” value is recorded as 882 counts; the “Binding Results For Window Length (counts bound-background), 15” value was 4588 counts.

“KLTGSGELWWQAERASSSKSW [human CD4 231-251]”: the “number of radioactive decays (counts) counted” value (“number of radioactive decays” for short) came to 1878 counts. QKEEVQLLVFGL: the “COUNTS of radiolabeled gp120 retained” value under setting [2] turned out to be 1785 counts. With NWYFGNFLCKAVHVIYTV, the “radioactive counts recorded in twenty minutes” value (“radioactive counts recorded” for short) under setting [3] is listed as 96 counts and the “radioactive counts recorded” value under setting [4] amounted to 508 counts. For the sequence TVEKLTGSG, the “COUNTS of radiolabeled gp120 retained” value under setting [5] worked out at 487 counts. Take EKLTGSGEL: the “COUNTS of radiolabeled gp120 retained” value under setting [5] is listed as 541 counts. On to IEDSDTYICEVE, for which the “COUNTS of radiolabeled gp120 retained” value under setting [2] was 1107 counts. Turning to GLTANSDTHLLQGQS, under setting [6], the “COUNTS of radiolabeled gp120 retained” value came out at 532 counts.

As to LKIEDSDTYICEVEDQKE, the “COUNTS of radiolabeled gp120 retained” value under setting [6] worked out at 872 counts. Regarding EKLTGSGELWWQAER, the “COUNTS of radiolabeled gp120 retained” value under setting [7] is reported as 683 counts.

Regarding “SLKIIFLVMAVFLLTQMP [STRL33 segment 229-246]”, the “radioactive counts recorded” value by setting is: under setting [8], 612.5 counts; under setting [9], 853.5 counts. FSFPLAFTV: under setting [5], the “COUNTS of radiolabeled gp120 retained” value was 472 counts. On the same count and under the same terms, then EKLTGSGELWWQ, with 543 counts. With AVFALKARTVTFGVVTSV, where the note is “background subtracted”, the “Counts per 20′ Average-background” value came to 63 counts per 20′.

As to EFKIDIVVLAFQ, the “COUNTS of radiolabeled gp120 retained” value under setting [5] is listed as 659 counts.

Consider EEVQLLVFALTANSD, for which the “COUNTS of radiolabeled gp120 retained” value under setting [10] was 19348 counts and 18254 counts. Regarding VEFKIDIVVLAF, the “COUNTS of radiolabeled gp120 retained” value under setting [5] was determined as 681 counts.

For YVGVWIPALLLTIPDFIF, the “radioactive counts recorded” value under setting [3] stood at 124 counts and the “radioactive counts recorded” value under setting [4] is given as 536 counts. In the case of IEDSDTYICEVEDQKEEV, the “COUNTS of radiolabeled gp120 retained” value under setting [6] was found to be 1230 counts. Turning to NQKKVEFKIDIVVLA, the “COUNTS of radiolabeled gp120 retained” value under setting [7] was 860 counts. With CSSSNRLDQAMQVTETLG [CCR5 segment 269-], the “Counts per 20′ Average-background” value (background subtracted) was 90 counts per 20′.

On to MDYQVSSPIYDANYYTSE, for which, under “CCR5 (1-18) alanine variants”, the “Relative % of Control” value is reported as 14 ± 1%. Regarding “LNPEAGMWQCLLSDSGQVLLE [human CD4 361-381]”, the “number of radioactive decays” value was 6316 counts. For “SFHYTIMVTEAIAYLRAC [STRL33 segment 265-282]”, the “radioactive counts recorded” value under setting [8] was 761.5 counts and the “radioactive counts recorded” value under setting [9] turned out to be 1033.5 counts. With QVEFSFPLAFTVEKLTGS, the “COUNTS of radiolabeled gp120 retained” value under setting [7] came to 736 counts. Turning to HLLQGQSLT, under setting [2], the “COUNTS of radiolabeled gp120 retained” value was 564 counts. On to KNLKIEDSD, for which the “COUNTS of radiolabeled gp120 retained” value under setting [2] worked out at 612 counts. As to KEEVQLLVFGLTANSDTH, the “COUNTS of radiolabeled gp120 retained” value under setting [6] stood at 1271 counts. Turning to VLAFQKASSIVY, the “COUNTS of radiolabeled gp120 retained” value under setting [5] is 548 counts. Regarding GLTANSDTHLLQGQSLTL, the “COUNTS of radiolabeled gp120 retained” value under setting [6] amounted to 572 counts. For the sequence EFKIDIVVLAFQKASSIV, under setting [7], the “COUNTS of radiolabeled gp120 retained” value is listed as 799 counts. For the sequence EDQKEEVQL, under setting [2], the “COUNTS of radiolabeled gp120 retained” value came out at 564 counts.

Take EEVQLLAFGLTANSD: the “COUNTS of radiolabeled gp120 retained” value under setting [10] is 13317 counts and 16286 counts. Take VQLLVFGLTANSDTHLLQ: the “COUNTS of radiolabeled gp120 retained” value under setting [6] is listed as 673 counts. As to LPLLVMVICYSGILKTLL [CCR5 segment 205-], the “Counts per 20′ Average-background” value (background subtracted) was found to be 68 counts per 20′. On to VFASLPGIIFTRSQKEGL [CCR5 segment 157-], for which the “Counts per 20′ Average-background” value (background subtracted) turned out to be 54 counts per 20′.

For CYSGILKTLLRCRNEKKR, the “Counts per 20′ Average-background” value (background subtracted) worked out at 70 counts per 20′. With “GEQVEFSFPLAFTVEKLTGSG [human CD4 216-236]”, the “number of radioactive decays” value amounted to 18549 counts. Further, the “COUNTS of radiolabeled gp120 retained” value under setting [11] is recorded as 652 counts.

With “LLSDSGQVLLESNIKVLPTWS [human CD4 371-391]”, the “number of radioactive decays” value is on record as 2375 counts. For the sequence “IGISIDSFILLEIIKQGC [CXCR4 segment 257-274]”, the “radioactive counts recorded” value reads like this: under setting [3], 734 counts; under setting [4], 1146 counts. On to GNFPLIIKN, for which, under setting [2], the “COUNTS of radiolabeled gp120 retained” value was 600 counts.

Consider VLAFQKASSIVYKKEGEQVEF, for which the “number of radioactive decays” value turned out to be 3566 counts. The “COUNTS of radiolabeled gp120 retained” value under setting [11] is 1793 counts. Take EFSFPLAFT: under setting [5], the “COUNTS of radiolabeled gp120 retained” value was determined as 658 counts.

Take AGGFQKHRSLKIIFLVMA: the “radioactive counts recorded” value runs as follows: under setting [8], 340.5 counts; under setting [9], 260.5 counts.

On to EVQLLVFGLTAN, for which the “COUNTS of radiolabeled gp120 retained” value under setting [2] is reported as 1838 counts. As to MDYQVSSPIYDINYYTAE, the “Relative % of Control” value (CCR5 (1-18) alanine variants) is 64 ± 6%. On to GNFPLIIKNLKIEDSDTY, for which the “COUNTS of radiolabeled gp120 retained” value under setting [6] turned out to be 557 counts.

In the case of KATKAYNQQAKRMTWGKV, the “radioactive counts recorded” value under setting [8] stood at 701.5 counts and the “radioactive counts recorded” value under setting [9] was found to be 568.5 counts. Regarding “EKVVYVGVWIPALLLTIP [CXCR4 segment 153-170]”, the “radioactive counts recorded” value was 147 counts under setting [3] and 559 counts under setting [4]. Turning to DSDTYICEVEDQ, the “COUNTS of radiolabeled gp120 retained” value under setting [2] is 937 counts. On the same count and under the same terms, then KNLKIEDSDTYI, with 523 counts. Regarding CTVLQNQKKVEFKIDIVV, the “COUNTS of radiolabeled gp120 retained” value under setting [7] was 553 counts.

For the sequence “MDAQVSSPIYDINYYTSE [CCR5 (1-18) variant Y3A]”, the “Relative % of Control” value (CCR5 (1-18) alanine variants) was 51 ± 2%. For TYICEVEDQKEEVQL, the “COUNTS of radiolabeled gp120 retained” value under setting [6] amounted to 956 counts. Turning to EFKIDIVVLAFQKASSIVYKK, the “COUNTS of radiolabeled gp120 retained” value under setting [11] was 649 counts.

For LAFQKASSIVYKKEGEQVEFS, the “COUNTS of radiolabeled gp120 retained” value under setting [11] turned out to be 1410 counts. In the case of SIVYKKEGEQVE, the “COUNTS of radiolabeled gp120 retained” value under setting [5] came out at 543 counts.

For “DYGFSSFNDSSQEEHQAF [STRL33 segment 9-26]”, the “radioactive counts recorded” value under setting [8] is listed as 8579.5 counts. Further, the “radioactive counts recorded” value under setting [9] is 8909.5 counts. Under setting [1], the “Binding Results For Window Length (counts bound-background), 9” value is 701 counts; the “Binding Results For Window Length (counts bound-background), 12” value is recorded as 573 counts; the “Binding Results For Window Length (counts bound-background), 15” value was 595 counts. Besides, the “Binding Results For Window Length (counts bound-background), 18” value (STRL33 amino terminus, 18-mer starting at the first residue of the printed sequence, background subtracted) was 440 counts.

With SDTHLLQGQSLTLTL, the “COUNTS of radiolabeled gp120 retained” value under setting [6] worked out at 747 counts. With “FHCCLNPILYAFLGAKFK [CXCR4 segment 293-310]”, the “radioactive counts recorded” value under setting [3] is listed as 123 counts and the “radioactive counts recorded” value under setting [4] is recorded as 535 counts. As for LPPLYSLVFIFGFVGNML [CCR5 segment 33-50], the “Counts per 20′ Average-background” value (background subtracted) stood at 705 counts per 20′. Regarding THLLQGQALTLTLES, the “COUNTS of radiolabeled gp120 retained” value under setting [10] was 8659 counts and 5151 counts. Regarding FWAHYAAAQWDFGNTMCQ [CCR5 segment 85-], under “background subtracted”, the “Counts per 20′ Average-background” value worked out at 212 counts per 20′. For MEGISIYTSANYTEEMGS, the “Relative % of Control” value (CXCR4 (1-18) alanine variants) was 71 ± 8%. As to “VYKKEGEQVEFSFPLAFTVEK [human CD4 211-231]”, the “number of radioactive decays” value is listed as 14740 counts. Moreover, under setting [11], the “COUNTS of radiolabeled gp120 retained” value was found to be 2429 counts.
